Legend:
Format in all cases: in vivo
[1] = system: Spodoptera litura; experiment: Spodoptera litura diet incorporation method; details: third instar larvae, dead and moribund combined, 96 h after release
Procedure, shortened: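 Compound milled to <2 μm average particle size in surfactant, dispersed in water (500 ppm stock dispersion), then mixed into semi-synthetic diet at ~50° C. One starved third-instar larva per diet cell, 25° C, 70% RH; percent mortality (dead plus moribund) scored at 96 h.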

[2] = system: Plutella xylostella; experiment: whole plant or invertebrate; details: foliar, cabbage leaf dip, second instar larvae, dead and moribund combined, 72 h after release
Procedure, shortened: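 Compounds milled with zirconia beads into surfactant dispersion (500 ppm stock), diluted in 0.01% Triton-X. Cabbage leaves dipped 10 s, shade-dried 20 min; one second-instar larva per cell, 25 °C, 70% RH. Mortality (dead plus moribund) scored at 72 h.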

[3] = system: Helicoverpa armigera; experiment: Helicoverpa armigera diet incorporation method; details: third instar larvae, dead and moribund combined, 96 h after release
Procedure, shortened: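 500 ppm stock of compound milled with surfactant and zirconia beads to average particle size below 2 μm, dispersed in DM water, diluted as needed, and mixed into semi-synthetic diet at about 50° C. Single starved third-instar larvae per cell, held at 25° C., 70% RH; dead plus moribund larvae scored as percent mortality at 96 h.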

Measured: mortality at 300 ppm

Cc1cc2ccnn2c(C(=O)NCC2CCOCC2)c1NC(=O)c1cc(Br)nn1-c1ncccc1Cl [Compound 195, 6-(3-bromo-1-(3-chloropyridin-2-yl)-1H-pyrazole-5-carboxamido)-5-methyl-N-((tetrahydro-2H-pyran-4-yl)methyl)pyrazolo[1,5-a]pyridine-7-carboxamide]
> 70%: all assays above

Cc1cc2ccnn2c(C(=O)NC2COC2)c1NC(=O)c1cc(Br)nn1-c1ncccc1Cl [Compound 35, 6-(3-bromo-1-(3-chloropyridin-2-yl)-1H-pyrazole-5-carboxamido)-5-methyl-N-(oxetan-3-yl)pyrazolo[1,5-a]pyridine-7-carboxamide]
> 70%: all assays above

CC(C)(C)NC(=O)c1c(NC(=O)c2cc(Br)nn2-c2ncccc2Cl)c(Br)cc2ccnn12 [Compound 53, 5-bromo-6-(3-bromo-1-(3-chloropyridin-2-yl)-1H-pyrazole-5-carboxamido)-N-(tert-butyl)pyrazolo[1,5-a]pyridine-7-carboxamide]
> 70%: all assays above

CNC(=O)c1c(NC(=O)c2cc(Cn3nnc(C(F)(F)F)n3)nn2-c2ncccc2Cl)c(C)cc2ccnn12 [Compound 166, 6-(1-(3-chloropyridin-2-yl)-3-((5-(trifluoromethyl)-2H-tetrazol-2-yl)methyl)-1H-pyrazole-5-carboxamido)-N,5-dimethylpyrazolo[1,5-a]pyridine-7-carboxamide]
> 70%: all assays above

CCNC(=O)c1c(NC(=O)c2cc(C(F)(F)F)nn2-c2ncccc2Cl)c(C)cc2ccnn12 [Compound 59, 6-(1-(3-chloropyridin-2-yl)-3-(trifluoromethyl)-1H-pyrazole-5-carboxamido)-N-ethyl-5-methylpyrazolo[1,5-a]pyridine-7-carboxamide]
> 70%: all assays above

CCNC(=O)c1c(NC(=O)c2cc(Cn3nnc(C(F)(F)F)n3)nn2-c2ncccc2Cl)c(Cl)cc2ccnn12 [Compound 154, 5-chloro-6-(1-(3-chloropyridin-2-yl)-3-((5-(trifluoromethyl)-2H-tetrazol-2-yl)methyl)-1H-pyrazole-5-carboxamido)-N-ethylpyrazolo[1,5-a]pyridine-7-carboxamide]
> 70%: all assays above

CNC(=O)c1c(NC(=O)c2cc(Br)nn2-c2ncccc2Cl)c(C)cc2ccnn12 [Compound 1, 6-(3-bromo-1-(3-chloropyridin-2-yl)-1H-pyrazole-5-carboxamido)-N,5-dimethylpyrazolo[1,5-a]pyridine-7-carboxamide]
> 70%: all assays above

COCCNC(=O)c1c(NC(=O)c2cc(OC)nn2-c2ncccc2Cl)c(C)cc2ccnn12 [Compound 33, 6-(1-(3-chloropyridin-2-yl)-3-methoxy-1H-pyrazole-5-carboxamido)-N-(2-methoxyethyl)-5-methylpyrazolo[1,5-a]pyridine-7-carboxamide]
> 70%: all assays above

COc1cc(C(=O)Nc2c(C)cc3ccnn3c2C(=O)NCCC#N)n(-c2ncccc2Cl)n1 [Compound 41, 6-(1-(3-chloropyridin-2-yl)-3-methoxy-1H-pyrazole-5-carboxamido)-N-(2-cyanoethyl)-5-methylpyrazolo[1,5-a]pyridine-7-carboxamide]
> 70%: all assays above

COc1cc(C(=O)Nc2c(C)cc3ccnn3c2C(=O)NCC(F)F)n(-c2ncccc2Cl)n1 [Compound 214, 6-(1-(3-chloropyridin-2-yl)-3-methoxy-1H-pyrazole-5-carboxamido)-N-(2,2-difluoroethyl)-5-methylpyrazolo[1,5-a]pyridine-7-carboxamide]
> 70%: all assays above

Cc1cc2ccnn2c(C(=O)NCC2CC2)c1NC(=O)c1cc(OCC(F)(F)F)nn1-c1ncccc1Cl [Compound 14, 6-(1-(3-chloropyridin-2-yl)-3-(2,2,2-trifluoroethoxy)-1H-pyrazole-5-carboxamido)-N-(cyclopropylmethyl)-5-methylpyrazolo[1,5-a]pyridine-7-carboxamide]
> 70%: all assays above

CCNC(=O)c1c(NC(=O)c2cc(Br)nn2-c2ncccc2Cl)c(C)cc2ccnn12 [Compound 2, 6-(3-bromo-1-(3-chloropyridin-2-yl)-1H-pyrazole-5-carboxamido)-N-ethyl-5-methylpyrazolo[1,5-a]pyridine-7-carboxamide]
> 70%: all assays above

O=C(Nc1c(Cl)cc2ccnn2c1C(=O)NCC1CC1)c1cc(Br)nn1-c1ncccc1Cl [Compound 140, 6-(3-bromo-1-(3-chloropyridin-2-yl)-1H-pyrazole-5-carboxamido)-5-chloro-N-(cyclopropylmethyl)pyrazolo[1,5-a]pyridine-7-carboxamide]
> 70%: all assays above

Cc1cc2ccnn2c(C(=O)NCC(F)(F)F)c1NC(=O)c1cc(Br)nn1-c1ncccc1Cl [Compound 96, 6-(3-bromo-1-(3-chloropyridin-2-yl)-1H-pyrazole-5-carboxamido)-5-methyl-N-(2,2,2-trifluoroethyl)pyrazolo[1,5-a]pyridine-7-carboxamide]
> 70%: all assays above

CCNC(=O)c1c(NC(=O)c2cc(OC)nn2-c2ncccc2Cl)c(C)cc2ccnn12 [Compound 31, 6-(1-(3-chloropyridin-2-yl)-3-methoxy-1H-pyrazole-5-carboxamido)-N-ethyl-5-methylpyrazolo[1,5-a]pyridine-7-carboxamide]
> 70%: all assays above

COc1cc(C(=O)Nc2c(C)cc3ccnn3c2C(=O)NC(C)(C)C)n(-c2ncccc2Cl)n1 [Compound 30, N-(tert-butyl)-6-(1-(3-chloropyridin-2-yl)-3-methoxy-1H-pyrazole-5-carboxamido)-5-methylpyrazolo[1,5-a]pyridine-7-carboxamide]
> 70%: all assays above

COc1cc(C(=O)Nc2c(C)cc3ccnn3c2C(=O)NC2CC2)n(-c2ncccc2Cl)n1 [Compound 26, 6-(1-(3-chloropyridin-2-yl)-3-methoxy-1H-pyrazole-5-carboxamido)-N-cyclopropyl-5-methylpyrazolo[1,5-a]pyridine-7-carboxamide]
> 70%: all assays above

CNC(=O)c1c(NC(=O)c2cc(Br)nn2-c2ncccc2Cl)c(Br)cc2ccnn12 [Compound 51, 5-bromo-6-(3-bromo-1-(3-chloropyridin-2-yl)-1H-pyrazole-5-carboxamido)-N-methylpyrazolo[1,5-a]pyridine-7-carboxamide]
> 70%: all assays above

CCNC(=O)c1c(NC(=O)c2cc(Br)nn2-c2ncccc2Cl)c(Br)cc2ccnn12 [Compound 76, 5-bromo-6-(3-bromo-1-(3-chloropyridin-2-yl)-1H-pyrazole-5-carboxamido)-N-ethylpyrazolo[1,5-a]pyridine-7-carboxamide]
> 70%: all assays above

CSCCNC(=O)c1c(NC(=O)c2cc(Br)nn2-c2ncccc2Cl)c(Br)cc2ccnn12 [Compound 55, 5-bromo-6-(3-bromo-1-(3-chloropyridin-2-yl)-1H-pyrazole-5-carboxamido)-N-(2-(methylthio)ethyl)pyrazolo[1,5-a]pyridine-7-carboxamide]
> 70%: all assays above

Cc1cc2ccnn2c(C(=O)NC2CC2)c1NC(=O)c1cc(C(F)(F)F)nn1-c1ncccc1Cl [Compound 61, 6-(1-(3-chloropyridin-2-yl)-3-(trifluoromethyl)-1H-pyrazole-5-carboxamido)-N-cyclopropyl-5-methylpyrazolo[1,5-a]pyridine-7-carboxamide]
> 70%: all assays above

Cc1cc2ccnn2c(C(=O)NC(C)C)c1NC(=O)c1cc(Br)nn1-c1ncccc1Cl [Compound 4, 6-(3-bromo-1-(3-chloropyridin-2-yl)-1H-pyrazole-5-carboxamido)-N-isopropyl-5-methylpyrazolo[1,5-a]pyridine-7-carboxamide]
> 70%: all assays above

Cc1cc2ccnn2c(C(=O)NC(C)C2CC2)c1NC(=O)c1cc(Br)nn1-c1ncccc1Cl (stereo not drawn) [Compound 95, 6-(3-bromo-1-(3-chloropyridin-2-yl)-1H-pyrazole-5-carboxamido)-N-(1-cyclopropylethyl)-5-methylpyrazolo[1,5-a]pyridine-7-carboxamide]
> 70%: all assays above

C=CCNC(=O)c1c(NC(=O)c2cc(Br)nn2-c2ncccc2Cl)c(C)cc2ccnn12 [Compound 6, N-allyl-6-(3-bromo-1-(3-chloropyridin-2-yl)-1H-pyrazole-5-carboxamido)-5-methylpyrazolo[1,5-a]pyridine-7-carboxamide]
> 70%: all assays above
